Columns and labels:
Type in all cases: cell-based
[1] = system: canine tubule-derived MDCK II cells; experiment: Inhibition of induction of apoptosis, Caspase-3/7 activity assay in spheroids; settings: U- and V-bottom 96-well plates coated with 0.5% solution diluted 4-fold and 8-fold; day 3 and day 6; concentration-dependent, more pronounced on day 6
Description: An aqueous solution of the polypeptide represented by formula (1) was added in two different concentrations (prepared by diluting a 0.5% solution 4-fold and 8-fold) at 100 μL/well and 200 μL/well respectively to two 96-well cell culture plates with different bottom shapes (plate #163320 with a U-shaped bottom; Corning, NY, USA, and plate #277143 with a V-shaped bottom; Thermo Fisher Scientific, MA, USA) and allowed to stand overnight at 4° C. Thereafter, the excess cell culture supplement was removed, and the remaining solution was dried in a clean bench for about 6 hours to complete the treatment with the cell culture supplement. […] After three days and six days, the apoptosis activity per well was measured by using a Caspase activity assay kit (Apo-ONE Homogeneous Caspase-3/7 Assay kit; Promega, WI, USA). […] Thereafter, 100 μL of the culture fluid was transferred to a black 96-well cell culture plate (#237105; Thermo Fisher Scientific, MA, USA), and the value of fluorescence at 590 nm (excitation light at 560 nm) was measured with a plate reader. The value determined by subtracting the value for reagent-only with no cells (blank value) from a measured value was considered to be the measured value for each day of culture, and the values compared to those of the plate not coated with the aqueous solution of the polypeptide represented by formula (1) (control) were plotted.

[2] = system: healthy human neonatal fibroblasts; experiment: Real-time PCR of undifferentiated stem cell marker genes in neonatal fibroblast spheroids (6-well flat-bottom); settings: day 20 of 3D spheroid culture, coated 6-well flat-bottom; control without supplement = 1.0; ΔΔCt, β-actin
Description: (§1) 2 mL of an aqueous solution of the polypeptide represented by formula (1) (0.125%) (cell culture supplement) was added to a commercial polystyrene-made 6-well flat-bottom culture vessel (CellBIND, Corning) and allowed to stand at 4° C. for 24 hours.
Thereafter, the excess cell culture supplement was removed, and the remaining solution was dried in a dryer at 37° C. for 96 hours to complete coating treatment with the cell culture supplement. Healthy human neonatal fibroblasts (ATCC PCS-201-010, primary dermal fibroblasts, neonatal, referred to as “fibroblasts” below) were maintained and cultured in a serum-free medium (Promo Cell; fibroblast basal medium, basic-FGF 5 ng/mb and insulin 2.5 μg/mL). The fibroblasts floating in 2 mL of the medium were seeded in the culture vessel coated with the cell culture supplement at 2×10^6 cells/well and cultured at 37° C. under 5% CO2 conditions. For a control, fibroblasts were seeded in a culture vessel of the same type with no coating applied with the cell culture supplement (2×10^6 cells/well). Observation was performed with a microscope on day 2 and day 20 after the start of culture to capture images of spheroid formation (FIG. 5). […]
Specifically, a NucleoZOL reagent (Macherey-Nagel) was added to each type of cells, and total-RNA was extracted according to the protocol recommended by the reagent manufacturer and used as template RNA for detecting undifferentiated stem cell markers. For real-time PCR analysis, PCR probes from QuantiFast Probe RT-PCR Kits (QTAGEN; No. 204454) and TagMan Gene Expression Assay Probe (Thermo Fisher Scientific) were used. […] In the gene expression analysis, relative quantification was performed according to the ΔΔCt method (Delta Delta Ct method). The results of analysis according to the ΔΔCt method show the amount of a gene expressed by control cells under the conditions of “no cell culture supplement, flat-bottom 2D growth, day 0” as “1.0” in relative terms, and the increase rate of the expression level on day 20 of spheroid proliferation was determined by comparison (FIG. 6).

[3] = system: healthy human neonatal fibroblasts; experiment: Spheroid culture of healthy human neonatal fibroblasts in coated 6-well flat-bottom vessel, microscope observation; settings: PS 6-well flat-bottom vessel coated with 0.125% solution; day 2 to day 20; uncoated control adhered and grew 2D
Description: as §1
Thereafter, the excess cell culture supplement was removed, and the remaining solution was dried in a dryer at 37° C. for 96 hours to complete coating treatment with the cell culture supplement. Healthy human neonatal fibroblasts (ATCC PCS-201-010, primary dermal fibroblasts, neonatal, referred to as “fibroblasts” below) were maintained and cultured in a serum-free medium (Promo Cell; fibroblast basal medium, basic-FGF 5 ng/mb and insulin 2.5 μg/mL). The fibroblasts floating in 2 mL of the medium were seeded in the culture vessel coated with the cell culture supplement at 2×10^6 cells/well and cultured at 37° C. under 5% CO2 conditions. For a control, fibroblasts were seeded in a culture vessel of the same type with no coating applied with the cell culture supplement (2×10^6 cells/well). Observation was performed with a microscope on day 2 and day 20 after the start of culture to capture images of spheroid formation (FIG. 5).

(Pro-Hyp-Gly)n [cell culture supplement]
apoptosis (Caspase-3/7 activity) compared with uncoated plate [1]: inhibited | NANOG gene expression level (increase vs control) [2]: 9.1 fold | OCT4 gene expression level (increase vs control) [2]: 5.1 fold | SOX2 gene expression level (increase vs control) [2]: 34.4 fold | spheroid formation [3]: formed spheroids

From US20240294881A1, “CELL CULTURE SUPPLEMENT FOR PRODUCING STEM CELLS, AND METHOD FOR PRODUCING STEM CELLS” (OPTICELL, INC, priority 2021, published 2024)
